The record followed here is ChEMBL document CHEMBL4619729, “In silico and in vitro studies on interaction of novel non-imidazole histamine H3R antagonists with CYP3A4” (Bioorg Med Chem Lett, 2020).

The structures appear in SMILES notation.

T1 sequence (P08684 whole entry): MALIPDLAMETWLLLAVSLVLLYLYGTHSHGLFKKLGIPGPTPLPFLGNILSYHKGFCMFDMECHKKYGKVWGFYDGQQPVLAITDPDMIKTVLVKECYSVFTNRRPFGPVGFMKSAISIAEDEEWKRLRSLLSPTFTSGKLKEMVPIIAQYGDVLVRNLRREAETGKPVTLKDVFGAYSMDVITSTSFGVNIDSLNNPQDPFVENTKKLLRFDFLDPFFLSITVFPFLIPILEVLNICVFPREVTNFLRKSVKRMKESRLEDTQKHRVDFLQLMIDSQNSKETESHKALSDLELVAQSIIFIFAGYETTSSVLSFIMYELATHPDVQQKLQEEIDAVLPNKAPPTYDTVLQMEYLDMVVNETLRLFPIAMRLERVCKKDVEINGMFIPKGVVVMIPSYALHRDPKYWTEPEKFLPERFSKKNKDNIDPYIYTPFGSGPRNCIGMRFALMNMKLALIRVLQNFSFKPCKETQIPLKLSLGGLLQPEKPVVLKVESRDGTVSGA
Chain of Cytochrome P450 3A4 (P08684 whole entry): as above

The first series addresses T1, CYP3A4 (Homo sapiens, UniProt P08684). The experiment in a line: Inhibition of CYP3A4 (unknown origin) assessed as inhibition of conversion of beetle D-luciferin to D-luciferin at 10 uM by luminescent P450-Glo assay relative to control. It counts as ADME. The settings on record: probe beetle D-luciferin.
With `Clc1ccc(OCCCCCCN2CCCCCC2)cc1`, the inhibition at 10 µM was 23%. On the same count and under the same terms, then `CC1CCCN(CCCCCCCOc2ccc(Cl)cc2)C1` (stereo not drawn), with 4%; and `c1ccc2c(OCCCCCCN3CCCCCC3)cccc2c1`, with 46%.

For `CC(C)(C)c1ccc(OCCCN2CCCCC2)cc1`, the inhibition at 10 µM is 61%. As for `CCC(C)(C)c1ccc(OCCCN2CCCCC2)cc1`, the inhibition at 10 µM turned out to be 8%.

Regarding `CCC(C)(C)c1ccc(OCCCCCCCN2CCCCCC2)cc1`, the inhibition at 10 µM was determined as 38%. As to `CCC(C)(C)c1ccc(OCCCCCCCCN2CCCCCC2)cc1`, the inhibition at 10 µM is 41%. For the compound `CCC(C)(C)c1ccc(OCCCCN2CCCCCC2)cc1`, the inhibition at 10 µM turned out to be 5%. On to `CCC(C)(C)c1ccc(OCCCN2CCCCCC2)cc1`, for which the inhibition at 10 µM came out at 13%. For `c1ccc(-c2ccc(OCCCCCCN3CCCCCC3)cc2)cc1`, the inhibition at 10 µM amounted to 13%. With `c1ccc(-c2cccc(OCCCCCCN3CCCCCC3)c2)cc1`, the inhibition at 10 µM worked out at 19%. Consider `CC(C)(C)c1ccc(OCCCCCCN2CCCCCC2)cc1`, for which the inhibition at 10 µM was 19%. As to `Fc1ccc(OCCCCCCN2CCCCCC2)cc1`, the inhibition at 10 µM is 17%.

A further series concerns the target Cytochrome P450 3A4 (Homo sapiens, UniProt P08684). The experiment in a line: Activation of CYP3A4 (unknown origin) assessed as activation of conversion of beetle D-luciferin to D-luciferin at 10 uM by luminescent P450-Glo assay relative to control. It is filed as ADME.
Settings: not given
Turning to `CCC(C)(C)c1ccc(OCCCCCCN2CCCCCC2)cc1`, the Activity was 18%. On to `O=C(c1ccccc1)c1cccc(OCCCCCCN2CCCCCC2)c1`, for which the Activity came to 713%.

Another series has as its target T1, CYP3A4. As to the kind of experiment: Activation of human recombinant CYP3A4 assessed as activation of conversion of beetle D-luciferin to D-luciferin at 10 uM preincubated for 10 mins followed by substrate addition and measured after 50 mins in presence of NADPH by CYP450-Glo assay relative to control. It counts as ADME. As to conditions: recombinant CYP3A4, probe beetle D-luciferin, read-out: Activity.
Regarding `c1ccc2cc(OCCCCCCN3CCCCCC3)ccc2c1`, the activity at 50 min, 10 µM came out at 14%.

The target in another series is T2, Histamine H3 receptor (Homo sapiens, UniProt Q9Y5N1). As to the kind of experiment: Displacement of [3H]-N-alpha-methylhistamine from human recombinant full length H3R expressed in HEK293 cell membranes by Microbeta scintillation counting method.
T2 sequence (Q9Y5N1 whole entry): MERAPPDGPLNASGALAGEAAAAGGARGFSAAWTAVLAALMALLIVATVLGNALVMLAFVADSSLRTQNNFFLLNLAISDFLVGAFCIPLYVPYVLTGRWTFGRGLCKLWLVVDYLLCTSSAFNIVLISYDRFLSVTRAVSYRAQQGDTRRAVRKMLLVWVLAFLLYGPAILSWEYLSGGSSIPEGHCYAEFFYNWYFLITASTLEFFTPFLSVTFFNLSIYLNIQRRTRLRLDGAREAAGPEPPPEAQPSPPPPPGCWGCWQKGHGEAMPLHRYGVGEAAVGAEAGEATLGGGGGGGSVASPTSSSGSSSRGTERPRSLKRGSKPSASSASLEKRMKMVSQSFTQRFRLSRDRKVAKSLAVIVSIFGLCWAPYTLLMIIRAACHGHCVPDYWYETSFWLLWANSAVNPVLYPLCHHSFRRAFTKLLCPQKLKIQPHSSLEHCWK
Settings: not given
(In general: Displacement assays read how much labelled ligand stays bound in the presence of the test substance.)
In the case of `O=C(c1ccccc1)c1cccc(OCCCCCCN2CCCCCC2)c1`, the Ki was found to be 41 nM.

Another series has as its target T2, Histamine H3 receptor. As to the kind of experiment: Binding affinity to H3R (unknown origin).
Settings: not given
`CC(C)(C)c1ccc(OCCCCCCN2CCCCCC2)cc1` gave a Ki of 829 nM.

The term inhibition denotes the change of the read-out against control, counted positive when it falls. For orientation: Ki means the dissociation constant of the complex between target and ligand, obtained from inhibition or displacement.
